# Measured values reported in BindingDB's records for PubMed 10215699 (Gliatech, 1999).
# Values joined by “and” are separate entries in the source; they are usually repeats but may differ in a detail not shown here. Equal values may be shown once.
# Biological target: Histamine H2 receptor (Homo sapiens, UniProt P25021)
# Sequence (P25021 whole entry): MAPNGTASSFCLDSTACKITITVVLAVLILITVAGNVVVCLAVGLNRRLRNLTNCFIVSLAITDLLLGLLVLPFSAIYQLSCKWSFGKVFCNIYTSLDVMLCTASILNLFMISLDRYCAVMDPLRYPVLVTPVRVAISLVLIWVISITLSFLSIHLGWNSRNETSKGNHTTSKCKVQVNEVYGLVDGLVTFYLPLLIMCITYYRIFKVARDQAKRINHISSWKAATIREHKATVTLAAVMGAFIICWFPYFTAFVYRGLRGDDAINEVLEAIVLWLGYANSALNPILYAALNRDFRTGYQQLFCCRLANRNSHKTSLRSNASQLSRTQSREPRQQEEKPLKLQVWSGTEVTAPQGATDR
row,SMILES,Ki [nM]
1,C(=CCCC1CCCCC1)CCc1cnc[nH]1 [GT 2228],4470

# Biological target: Hrh3 protein (Rattus norvegicus, UniProt Q5PPG3)
# Sequence (Q5PPG3 whole entry): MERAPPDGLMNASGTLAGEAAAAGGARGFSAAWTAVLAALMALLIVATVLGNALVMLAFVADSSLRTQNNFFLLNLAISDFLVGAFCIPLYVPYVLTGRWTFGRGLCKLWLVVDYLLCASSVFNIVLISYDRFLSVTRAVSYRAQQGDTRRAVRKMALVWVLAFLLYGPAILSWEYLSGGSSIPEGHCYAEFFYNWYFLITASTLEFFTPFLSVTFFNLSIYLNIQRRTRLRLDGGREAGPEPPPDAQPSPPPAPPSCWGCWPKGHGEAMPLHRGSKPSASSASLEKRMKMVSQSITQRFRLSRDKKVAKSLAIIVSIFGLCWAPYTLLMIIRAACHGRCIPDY
row,Ki,SMILES
1,31 nM,N[C@@H](CC1CCCCC1)C(=O)NCCc1cnc[nH]1 [GT 2140]
2,16 nM,O=C(CCCC1CCCCC1)NCCc1cnc[nH]1 [GT 2174]
3,4.2 nM and 15.2 nM,C(=CCCC1CCCCC1)CCc1cnc[nH]1 [GT 2228]
4,1 nM,N[C@H](C=CCCc1cnc[nH]1)CC1CCCCC1 [GT 2231]
5,75 nM,c1ncc(CCCCCCC2CCCCC2)[nH]1 [GT 2321]

# Second part, the compound before the results:
row,SMILES,Ki
1,CC(C)(C)CCC#CCCc1c[nH]cn1,0.83 nM
2,N[C@@H](Cc1ccccc1)C(=O)NCCc1c[nH]cn1 [GT 2130],104 nM
3,N[C@H](Cc1ccccc1)C(=O)NCCc1c[nH]cn1 [GT 2136],2810 nM
4,CN[C@@H](Cc1ccccc1)C(=O)NCCc1c[nH]cn1 [GT 2142],1590 nM
5,N[C@H](C(=O)NCCc1c[nH]cn1)c1ccccc1 [GT 2146],630 nM
6,N[C@@H](CCc1ccccc1)C(=O)NCCc1c[nH]cn1 [GT 2148],11 nM
7,C(#CCCC1CCCCC1)CCc1c[nH]cn1 [GT 2260],2.9 nM
8,C(#CCCC1CCCC1)CCc1c[nH]cn1 [GT 2286],0.95 nM
9,C(#CCCc1c[nH]cn1)CCCC1CCCCC1 [GT 2287],3.4 nM
10,C(#Cc1c[nH]cn1)CCCC1CCCCC1 [GT 2288],1030 nM
11,C(=CCCc1cnc[nH]1)CCc1ccccc1 [GT 2327],5.5 nM

# Biological target: Histamine H3 receptor (Homo sapiens, UniProt Q9Y5N1)
# Sequence (Q9Y5N1 whole entry): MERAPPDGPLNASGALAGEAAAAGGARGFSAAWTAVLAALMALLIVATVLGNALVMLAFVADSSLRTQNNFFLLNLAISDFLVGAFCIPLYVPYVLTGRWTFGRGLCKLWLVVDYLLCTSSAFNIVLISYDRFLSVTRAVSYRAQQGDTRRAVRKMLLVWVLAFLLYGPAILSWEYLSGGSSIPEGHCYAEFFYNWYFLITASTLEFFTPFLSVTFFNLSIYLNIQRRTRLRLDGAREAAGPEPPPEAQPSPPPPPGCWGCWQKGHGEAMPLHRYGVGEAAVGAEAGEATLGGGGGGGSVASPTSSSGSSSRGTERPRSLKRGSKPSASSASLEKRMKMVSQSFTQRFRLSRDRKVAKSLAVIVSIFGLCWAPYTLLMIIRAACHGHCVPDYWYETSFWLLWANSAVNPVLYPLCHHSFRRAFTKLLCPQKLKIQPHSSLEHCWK
row,SMILES,Ki [nM]
1,C(=CCCC1CCCCC1)CCc1cnc[nH]1 [GT 2228],3.2
